In patent US12054486B2, “Pyridine derivatives and their use as sodium channel activators” (Xenon Pharmaceuticals Inc., priority 2021, dated 2024):

What follows are compounds tested against sodium channel isoforms of interest stably expressed in Human Embryonic Kidney Cells (voltage-gated sodium channel, particularly NaV1.1) (Homo sapiens, UniProt P35498) (assay: automated planar patch clamp assay of sodium channel gating (area under the sodium current trace)). Details: HEK cells, voltage step from −120 mV to 0 mV, increasing concentrations.
Type: cell-based
Text: A typical assay described in Crestey, F. et al., ACS Chem Neurosci (2015), Vol. 6, pp. 1302-1308, AA43279 (Frederiksen, K. et al., Eur J Neurosci (2017), Vol. 46, pp. 1887-1896) and Lu AE98134 (von Schoubyea, N. L. et al., Neurosci Lett (2018), Vol. 662, pp. 29-35) employs the use of automated planar patch clamp techniques to study the effects of the chemical agent on the gating of sodium channels. The sodium channel isoforms of interest are stably expressed in Human Embryonic Kidney Cells and the currents that flow through those channels in response to a depolarizing voltage clamp step from −120 mV to 0 mV are measured in the presence of increasing concentrations of the chemical agents. The area under the sodium current trace which correlates to the magnitude of sodium flux through the cell membrane is used to quantify the effects on gating of the channels. Other parameters that are measured in the assay include the peak current, time constant of open state inactivation and the voltage dependence of steady state inactivation properties. The concentration responses are used to determine potency of each chemical agents effects on modulating the sodium channel isoform gating. Such techniques are known to those skilled in the art, and may be developed, using current technologies, into low or medium throughput assays for evaluating compounds for their ability to modulate sodium channel behaviour.
As disclosed above, typical assays for testing compounds of the disclosure are known, for example as disclosed in Crestey, F. et al., ACS Chem Neurosci (2015), Vol. 6, pp. 1302-1308, AA43279 (Frederiksen, K. et al., Eur J Neurosci (2017), Vol. 46, pp. 1887-1896) and Lu AE98134 (von Schoubyea, N. L. et al., Neurosci Lett (2018), Vol. 662, pp. 29-35) which employs the use of automated planar patch clamp techniques to study the effects of the chemical agent on the gating of sodium channels. The sodium channel isoforms of interest are stably expressed in Human Embryonic Kidney Cells and the currents that flow through those channels in response to a depolarizing voltage clamp step from −120 mV to 0 mV are measured in the presence of increasing concentrations of the chemical agents. The area under the sodium current trace which correlates to the magnitude of sodium flux through the cell membrane is used to quantify the effects on gating of the channels. Other parameters that are measured in the assay include the peak current, time constant of open state inactivation and the voltage dependence of steady state inactivation properties. The concentration responses are used to determine potency of each chemical agents effects on modulating the sodium channel isoform gating.

Compound | EC50 | Empirical Emax
CC1(C)OCCc2nc(-c3c(-c4ccccc4)ccnc3N3CCC(F)(F)C3)[nH]c21 [Example 54, 2-(2-(3,3-difluoropyrrolidin-1-yl)-4-phenylpyridin-3-yl)-4,4-dimethyl-3,4,6,7-tetrahydropyrano[3,4-d]imidazole] | 1000 to 10000 nM | +++ (+++ indicates a value from 5.0 up to 7.5 μM)
CC(C)(C)OC(=O)N1CCc2nc(-c3c(-c4ccccc4)ccnc3N3CCC(F)(F)C3)[nH]c2C1 [Example 55, Tert-Butyl 2-[2-(3,3-difluoropyrrolidin-1-yl)-4-phenyl-3-pyridyl]-3,4,6,7-tetrahydroimidazo[4,5-c]pyridine-5-carboxylate] | < 1000 nM | +++ (+++ indicates a value from 5.0 up to 7.5 μM)
Fc1ccc(F)c(-c2ccnc(N3CC[C@H](F)C3)c2-c2nc3c([nH]2)COCC3)c1 [Example 56, (S)-2-(4-(2,5-difluorophenyl)-2-(3-fluoropyrrolidin-1-yl)pyridin-3-yl)-3,4,6,7-tetrahydropyrano[3,4-d]imidazole] | 1000 to 10000 nM | ++++ (++++ indicates a value greater than 7.5)
CC1(C)Cc2nc(-c3c(-c4cc(F)ccc4F)ccnc3N3CCC(F)(F)C3)[nH]c2CO1 [Example 57, 2-(4-(2,5-difluorophenyl)-2-(3,3-difluoropyrrolidin-1-yl)pyridin-3-yl)-6,6-dimethyl-3,4,6,7-tetrahydropyrano[3,4-d]imidazole] | < 1000 nM | ++++ (++++ indicates a value greater than 7.5)
COC1CCc2nc(-c3c(-c4ccccc4)ccnc3N3CC[C@H](F)C3)[nH]c2C1 (stereo partly drawn) [Example 58, 2-(2-((S)-3-fluoropyrrolidin-1-yl)-4-phenylpyridin-3-yl)-6-methoxy-4,5,6,7-tetrahydro-1H-benzo[d]imidazole] | 1000 to 10000 nM | ++ (++ indicates a value from 2.0 up to 5.0 μM)
COC1CCc2nc(-c3c(-c4ccccc4)ccnc3N3CCC(F)(F)C3)[nH]c2C1 (stereo not drawn) [Example 59, 2-(2-(3,3-difluoropyrrolidin-1-yl)-4-phenylpyridin-3-yl)-6-methoxy-4,5,6,7-tetrahydro-1H-benzo[d]imidazole] | < 1000 nM | ++ (++ indicates a value from 2.0 up to 5.0 μM)
FC1(F)CCN(c2nccc(-c3ccccc3)c2-c2nc3c([nH]2)CCCC3)C1 [Example 60, 2-(2-(3,3-difluoropyrrolidin-1-yl)-4-phenylpyridin-3-yl)-4,5,6,7-tetrahydro-1H-benzo[d]imidazole] | < 1000 nM | ++ (++ indicates a value from 2.0 up to 5.0 μM)
Cc1[nH]c(-c2c(-c3ccccc3)ccnc2N2CCC(F)(F)C2)nc1-c1ccccc1 [Example 61, 2-(3,3-difluoropyrrolidin-1-yl)-3-(5-methyl-4-phenyl-1H-imidazol-2-yl)-4-phenylpyridine] | 1000 to 10000 nM | ++ (++ indicates a value from 2.0 up to 5.0 μM)
CC(C)(C)c1nc(-c2c(-c3ccccc3)ccnc2N2CCC(F)(F)C2)no1 [Example 62, 5-(tert-butyl)-3-(2-(3,3-difluoropyrrolidin-1-yl)-4-phenylpyridin-3-yl)-1,2,4-oxadiazole] | 1000 to 10000 nM | + (+ indicates a value less than 2.0 μM)
OC1Cc2nc(-c3c(-c4ccccc4)ccnc3N3CCC(F)(F)C3)[nH]c2C1 [Example 63, 2-(2-(3,3-difluoropyrrolidin-1-yl)-4-phenylpyridin-3-yl)-1,4,5,6-tetrahydrocyclopenta[d]imidazol-5-ol] | 1000 to 10000 nM | ++ (++ indicates a value from 2.0 up to 5.0 μM)
c1ccc(-c2ccnc(N3CCOCC3)c2-c2nc3c([nH]2)COCC3)cc1 [Example 64, 2-(2-morpholino-4-phenylpyridin-3-yl)-3,4,6,7-tetrahydropyrano[3,4-d]imidazole] | 10000 to 50000 nM | + (+ indicates a value less than 2.0 μM)
FC1(F)CN(c2nccc(-c3ccccc3)c2-c2nc3c([nH]2)COCC3)C1 [Example 65, 2-(2-(3,3-difluoroazetidin-1-yl)-4-phenylpyridin-3-yl)-3,4,6,7-tetrahydropyrano[3,4-d]imidazole] | ≥ 50000 nM | ++ (++ indicates a value from 2.0 up to 5.0 μM)
c1ccc(-c2ccnc(N3CC4(COC4)C3)c2-c2nc3c([nH]2)COCC3)cc1 [Example 66, 2-(4-phenyl-2-(2-oxa-6-azaspiro[3.3]heptan-6-yl)pyridin-3-yl)-3,4,6,7-tetrahydropyrano[3,4-d]imidazole] | 1000 to 10000 nM | +++ (+++ indicates a value from 5.0 up to 7.5 μM)
c1ccc(-c2ccnc(OC3CCC3)c2-c2nc3c([nH]2)COCC3)cc1 [Example 67, 2-(2-cyclobutoxy-4-phenylpyridin-3-yl)-3,4,6,7-tetrahydropyrano[3,4-d]imidazole] | ≥ 50000 nM | + (+ indicates a value less than 2.0 μM)
F[C@H]1CCN(c2nccc(-c3ccccc3)c2-c2nc3ccccc3o2)C1 [Example 68, (S)-2-(2-(3-fluoropyrrolidin-1-yl)-4-phenylpyridin-3-yl)benzo[d]oxazole] | ≥ 50000 nM | + (+ indicates a value less than 2.0 μM)
F[C@H]1CCN(c2nccc(-c3ccccc3)c2-c2nc(-c3ccccc3)n[nH]2)C1 [Example 69, (S)-2-(3-fluoropyrrolidin-1-yl)-4-phenyl-3-(3-phenyl-1H-1,2,4-triazol-5-yl)pyridine] | 1000 to 10000 nM | ++ (++ indicates a value from 2.0 up to 5.0 μM)
Fc1ccccc1-c1ccnc(N2CCC(F)(F)C2)c1-c1nc2c([nH]1)COCC2 [Example 72, 2-[2-(3,3-difluoropyrrolidin-1-yl)-4-(2-fluorophenyl)-3-pyridyl]-1,4,6,7-tetrahydropyrano[3,4-d]imidazole] | < 1000 nM | ++++ (++++ indicates a value greater than 7.5)
Fc1ccc(F)c(-c2ccnc(N3CCC(F)(F)C3)c2-c2nc3c([nH]2)CCOC3)c1 [Example 73, 2-[4-(2,5-difluorophenyl)-2-(3,3-difluoropyrrolidin-1-yl)-3-pyridyl]-1,4,6,7-tetrahydropyrano[3,4-d]imidazole] | < 1000 nM | +++ (+++ indicates a value from 5.0 up to 7.5 μM)
FC1(F)CCN(c2nccc(-c3ccc4[nH]ncc4c3)c2-c2nc3c([nH]2)CCOC3)C1 [Example 74, 2-[2-(3,3-difluoropyrrolidin-1-yl)-4-(1H-indazol-5-yl)-3-pyridyl]-1,4,6,7-tetrahydropyrano[3,4-d]imidazole] | 1000 to 10000 nM | ++++ (++++ indicates a value greater than 7.5)
Fc1cccc(-c2ccnc(N3CCC(F)(F)C3)c2-c2nc3c([nH]2)CCOC3)c1 [Example 75, 2-[2-(3,3-difluoropyrrolidin-1-yl)-4-(3-fluorophenyl)-3-pyridyl]-1,4,6,7-tetrahydropyrano[3,4-d]imidazole] | < 1000 nM | ++++ (++++ indicates a value greater than 7.5)
FC1(F)CCN(c2nccc(-c3ccccn3)c2-c2nc3c([nH]2)CCOC3)C1 [Example 76, 2-[2-(3,3-difluoropyrrolidin-1-yl)-4-(2-pyridyl)-3-pyridyl]-1,4,6,7-tetrahydropyrano[3,4-d]imidazole] | 10000 to 50000 nM | +++ (+++ indicates a value from 5.0 up to 7.5 μM)
Fc1cccc(-c2ccnc(N3CCC(F)(F)C3)c2-c2nc3c([nH]2)CCOC3)c1F [Example 77, 2-[4-(2,3-difluorophenyl)-2-(3,3-difluoropyrrolidin-1-yl)-3-pyridyl]-1,4,6,7-tetrahydropyrano[3,4-d]imidazole] | < 1000 nM | ++++ (++++ indicates a value greater than 7.5)
Fc1ccccc1-c1ccnc(N2CCC(F)(F)C2)c1-c1nc2ccncc2[nH]1 [Example 78, 2-[2-(3,3-difluoropyrrolidin-1-yl)-4-(2-fluorophenyl)-3-pyridyl]-1H-imidazo[4,5-c]pyridine] | < 1000 nM | ++++ (++++ indicates a value greater than 7.5)
Cc1cc2nc(-c3c(-c4ccccc4F)ccnc3N3CCC(F)(F)C3)[nH]c2cn1 [Example 79, 2-[2-(3,3-difluoropyrrolidin-1-yl)-4-(2-fluorophenyl)-3-pyridyl]-6-methyl-3H-imidazo[4,5-c]pyridine] | < 1000 nM | ++++ (++++ indicates a value greater than 7.5)
